US8299223B2, “Pseudoglycolipid and use thereof” (Riken, priority 2007, dated 2012)

Experiments:
IFN-γ [1] = test: Experimental Example 1: IFN-γ content of plasma after intraperitoneal injection in C57BL/6 mouse (Cytometric bead array); assay type: in vivo; details: intraperitoneal 100, 10 or 1 μg/kg body weight, plasma 6, 12, 24, 36 and 48 hr after administration, FIG. 1
Description: (§1) Compound 11′ was dissolved in […] saline (manufactured by OTSUKA PHARMACEUTICAL CO., LTD) containing Tween 20 (Bio-Rad) and prepared to a dose of 100 μg/kg body weight, 10 μg/kg body weight or 1 μg/kg body weight C57BL/6 mouse (5 per group), and the compound 11′ solution (200 μL) was intraperitoneally injected.
(§2) α-GalCer was used as a control substance, and 200 μL of each α-GalCer solution prepared to a dose of 100 μg/kg body weight, 10 μg/kg body weight or 1 μg/kg body weight according to a similar method was intraperitoneally injected.
(§3) A group administered with a medium (200 μL of saline containing 0.5% Tween 20) was taken as a negative control. The blood (80 μL) was taken from the orbital plexus venosus immediately before administration and 3, 6, 12, 24, 36 and 48 hr after administration, and the plasma was prepared. The IL-4 content of plasma immediately before administration and 3, 6 and 12 hr after administration, as well as IFN-γ content of plasma immediately before administration and 6, 12, 24, 36 and 48 hr after administration were measured by Cytometric bead array system (BD Biosciences), which is one kind of the ELISA method. The measurement results of IFN-γ production amount are shown FIG. 1 and the measurement results of IL-4 production amount are shown in FIG. 2.

IL-4 [2] = test: Experimental Example 1: IL-4 content of plasma after intraperitoneal injection in C57BL/6 mouse (Cytometric bead array); assay type: in vivo; details: intraperitoneal 100, 10 or 1 μg/kg body weight, plasma 3, 6 and 12 hr after administration, FIG. 2
Description: as §1, §2, §3

B16 melanoma = test: Experimental Example 2: anti-liver metastasis effect, survival after intrasplenic transfer of B16 melanoma; assay type: in vivo, mouse; details: FIG. 3
Description: The following experiment was performed for the anti-liver metastasis effect.
The left side of mouse was opened under anesthesia, and the spleen was exposed. 1×10^6 B16 melanoma was intrasplenically transferred using a 1 mL syringe (TERUMO CORPORATION), maintained for 30 sec, and the blood vessel was sutured. The spleen was isolated and the peritoneal membrane was sutured with a surgical thread (No. 4, Alfresa Pharma Corporation), and the outer skin was joined with a surgical clip. After 3 hr from the cell transfer, α-GalCer and compound 11′ were administered each in an amount of 2, 0.2 or 0.02 μg per mouse from the tail vein and the survival rate of each group was examined.

IFN-γ [3] = test: Experimental Example 3: human NKT cell proliferation and IFN-γ production induction, dendritic cells plus peripheral blood mononuclear cells, IFN-γ in culture supernatant; assay type: cell-based; details: as compared to α-GalCer and α-C-GalCer; for IFN-γ concentration of the culture supernatants: 3 days and 8 days later, FIG. 4 (a), (b); for selectivity of IFN-γ production induction: IFN-γ versus IL-4, FIG. 4 (a)-(d)
Description: (§4) The following experiment was performed for human NKT cell proliferation and IFN-γ production induction.
(§5) Monocytes were prepared from the peripheral blood of a healthy subject by anti-CD14 microbeads (Miltenyi Biotech), and dendritic cells were induced using GM-CSF and IL-4 (Peprotech). To the dendritic cells was added α-GalCer or synthetic glycolipid (α-C-GalCer, compound 11′, compound 51′), human peripheral blood mononuclear cell was added and the cells were cultured.
In this experiment, the IFN-γ concentration of the culture supernatants 3 days and 8 days later was measured. As a result, the concentration was very high when stimulated with compound 11′ and compound 51′ as compared to α-GalCer and α-C-GalCer (FIG. 4 (a), (b)).

IL-4 [4] = test: Experimental Example 3: dendritic cells plus human peripheral blood mononuclear cells, IL-4 in culture supernatant; assay type: cell-based; details: culture supernatants; as compared to α-GalCer and α-C-GalCer; FIG. 4
Description: as §4, §5

| SMILES | IFN-γ production amount (IFN-γ [1]) | IL-4 production amount (IL-4 [2]) | survival period (B16 melanoma; 2, 0.2 or 0.02 μg per mouse from the tail vein 3 hr after cell transfer, as compared to the non-treatment group and the α-GalCer administration group) | survival period (B16 melanoma; administration of 0.2 and 0.02 μg per mouse, as compared to the α-GalCer administration group) | IFN-γ concentration of the culture supernatants (IFN-γ [3]) | selectivity of IFN-γ production induction (IFN-γ [3]) | IL-4 concentration (IL-4 [4]) |
| --- | --- | --- | --- | --- | --- | --- | --- |
| CCCCCCCCCCCCCCCCCCCCCCCCCC(=O)N[C@@H](CO[C@H]1CC(CO)[C@H](O)C(O)C1O)[C@H](O)[C@H](O)CCCCCCCCCCCCCC (stereo partly drawn) [compound 11′, (2S,3S,4R)-1-(5a-carba-α-D-galactopyranosyloxy)-2-(hexacosanoylamino)-3,4-octadecanediol] | preferentially produced IFN-γ | in a small amount | extended | remarkable elongated | very high | selectively induced IFN-γ production | almost the same |
| CCCCCCCCCCCCCCCCCCCCCCCCCC(=O)N[C@@H](CO[C@H]1C[C@H](C)[C@H](O)[C@H](O)[C@H]1O)[C@H](O)[C@H](O)CCCCCCCCCCCCCC [compound 51′, (2S,3S,4R)-1-(5a-carba-α-D-fucopyranosyloxy)-2-(hexacosanoylamino)-3,4-octadecanediol] |  |  |  |  | very high | selectively induced IFN-γ production | almost the same |
| CCCCCCCCCCCCCCCCCCCCCCCCCC(=O)N[C@@H](COC1OC(CO)C(O)C(O)C1O)[C@H](O)[C@H](O)CCCCCCCCCCCCCC (stereo partly drawn) [α-GalCer, α-galactosylceramide, reference compound] | in large amounts | in large amounts |  |  |  |  |  |
